Reference: patent US20170119775A1, “TREATMENT OF COGNITIVE DISORDERS” (Algiax Pharmaceuticals GmbH, priority 2014, published 2017)

Columns and labels:
male Wistar rats [1] = assay: Object recognition task (ORT), natural forgetting, 24-h interval; assay type: in vivo, rat; conditions: 24 h delay, mean (SEM)
Description: In example 1, the compound AP-61 a 7-(4-tert butyl-cyclohexyl)-imidazotriazione (a compound of the formula II) was tested in the ORT in 3-4 month old male Wistar rats using a 24-h interval between the trials to induce natural forgetting.
One group of twenty four 3-4 month old male Wistar rats (Charles River, Sulzfeld, Germany) were used (average body weight at the beginning of the study: 365 g). All animals were housed individually in standard green line Tecniplast IVC cages on sawdust bedding. The animals were housed on a reversed 12/12-h light/dark cycle (lights on from 19:00 h to 07:00 h) and had free access to food and water. The rats were housed and tested in the same room. A radio, playing softly, provided background noise in the room. All testing was performed between 09:00 h and 18:00 h.
AP-61 was dissolved in 0.5% methylcellulose (MC) and 2% Tween 80. The solutions were prepared daily. Doses of 0.01, 0.03 and 0.1 mg/kg of AP-61 or vehicle were administered p.o. (injection volume was 2 ml/kg), immediately after T1. […]
A testing session comprised two trials, each with durations of 3 min. […] The times spent in exploring each object during T1 and T2 were recorded manually with a personal computer. […]
The measures were the times spent by rats in exploring each object during T1 and T2. […] From these exploration times the following variables were calculated: e1, e2 and d2 (Table 1). […]

male Wistar rats [2] = assay: Xylazine/ketamine-induced anesthesia test (surrogate measure of emesis); assay type: in vivo, rat; conditions: for relative recovery time (duration of anesthesia, vehicle set at 100%), mean: 3.5 h before induction of anesthesia
Text: The mechanism of the emetic response associated with PDE4-Is is thought to be a consequence of the inhibition of PDE4 in non-target tissues. It is believed that PDE4-Is produce a pharmacological response analogous to that of presynaptic α2-adrenoreceptor inhibition by elevating intracellular levels of cAMP in noradrenergic neurons. Therefore, by removing an inhibitory mechanism, PDE4-Is are thought to modulate the release of mediators including 5-HT, substance P and noradrenaline involved in the onset of the emetic reflex mediated at emetic brainstem centers. PDE4-Is have the ability to reverse α2-adrenoreceptor agonist-mediated anesthesia with xylazine/ketamine in rodents (Robichaud et al., 2002). This effect is very likely mediated at the locus coeruleus in the brain stem. This confirms the postulate that PDE4-Is have effects similar to those of a2-adrenoreceptor antagonists. Since rodents are non-vomiting species, the ability of a PDE4-I to shorten a2-adrenergic receptor-mediated xylazine/ketamine anesthesia is therefore used as well-established surrogate measure of emesis in rodents.
Twenty four 3-4 month old male Wistar rats (Charles River, Sulzfeld, Germany) were used (average body weight at the beginning of the study: 365 g). All animals were housed individually in standard green line Tecniplast IVC cages on sawdust bedding. The animals were housed on a reversed 12/12-h light/dark cycle (lights on from 19:00 h to 07:00 h) and had free access to food and water. The rats were housed and tested in the same room. A radio, playing softly, provided background noise in the room. All testing was performed between 09:00 h and 18:00 h.
AP-61 was dissolved in 0.5% methylcellulose (MC) and 2% Tween 80. […] (injection volume was 2 ml/kg). […] The emetic properties of the PDE4-I rolipram are already assessed (Bruno et al., 2011). In the current study rolipram was used as a reference compound for AP-61 and applied in at dosages of 0.1 and 0.3 mg/kg. Rolipram was dissolved in 0.5% MC and 2% tween 80 (injection volume 2 ml/kg, route of administration was p.o.). For the induction of anesthesia, 10 mg/kg ketamine (Eurovet Animal Health, The Netherlands) and 10 mg/kg xylazine (CEVA Santé Animale, The Netherlands) were used (both administered i.p.). All solutions were prepared daily.
Rats were anesthetized with a combination of xylazine and ketamine (both 10 mg/kg, i.p). Fifteen minutes after induction of the anesthesia, rats were treated with rolipram or vehicle (0.1 or 0.3 mg/kg, p.o.) and the animals were placed in a dorsal position. The restoration of the righting reflex, i.e. when the animal no longer remained on its back and turned itself spontaneously to the prone position, was used as an endpoint to determine the duration of anesthesia. Animals that were not anesthetized after 15 min were excluded from the analysis.
AP-61 reached peak concentration at 5 h after oral administration. Because of this, induction of anesthesia with the combination of xylazine and ketamine was done 3.5 h after oral administration of AP-61. Animals were then placed in a dorsal position. The time delay to the recovery of the righting reflex was used as an endpoint to measure the duration of the anesthesia. Again, animals that were not anesthetized after 15 min were excluded from the analysis.
The restoration of the righting reflex, i.e. when the animal no longer remained on its back and turned itself spontaneously to the prone position (standing on four paws), was used as an endpoint to determine the duration to the anesthesia. Each test day a vehicle group was included. Outliers were removed from the analysis (Dixon-test). Each daily vehicle was set at 100% while the other treatment conditions of that day were expressed as a percentage of the vehicle. The following formula was used:
Duration of anesthesia after drug treatment (min)×(100/mean of duration of anesthesia of vehicle treatment (min)) […]

[3] = Plasma Tmax after oral administration; assay type: in vivo

Row | SMILES | d2, discrimination index between the new and familiar objects for T2 (male Wistar rats [1]; AP61 0.01 mg/kg p.o. immediately after T1) | d2, discrimination index between the new and familiar objects for T2 (male Wistar rats [1]; AP61 0.1 mg/kg p.o. immediately after T1) | relative recovery time (duration of anesthesia, vehicle set at 100%), mean (male Wistar rats [2]; AP61 0.03 mg/kg p.o.) [%] | relative recovery time (duration of anesthesia, vehicle set at 100%), mean (male Wistar rats [2]; AP61 0.1 mg/kg p.o.) [%] | relative recovery time (duration of anesthesia, vehicle set at 100%), mean (male Wistar rats [2]; AP61 3.0 mg/kg p.o.) [%] | effect on duration of xylazine/ketamine-induced anesthesia compared with vehicle (summary) (male Wistar rats [2]; AP-61 0.03-3.0 mg/kg p.o., all doses) | emetic properties / gastrointestinal toxicity (conclusion) (male Wistar rats [2]; AP-61, all doses tested, within the effective dose range) | Tmax [3] [h] | effect on duration of the xylazine/ketamine-induced anesthesia (summary) (male Wistar rats [2]; oral rolipram, 2 mg/kg, 15 min after induction of anesthesia (so in the source))
1 | CCc1nc(C2CCC(C(C)(C)C)CC2)n2nc(-c3ccccc3)[nH]c(=O)c12 (stereo not drawn) [AP61, 7-(4-tert-butylcyclohexyl)-5-ethyl-2-phenylimidazo[5,1-f][1,2,4]triazin-4(3H)-one] | 0.10 (0.09) | 0.01 (0.08) | 97.16 | 107.16 | 108.37 | none of the doses led to a shortened duration | does not show any signs of gastrointestinal toxicity | 5 | 
2 | COc1ccc(C2CNC(=O)C2)cc1OC1CCCC1 (stereo not drawn) [rolipram, reference compound] |  |  |  |  |  |  |  |  | significant reduction
